Earlier results, collected in patent US20160213705A1, “METHOD TO TREAT ONYCHOMYCOSIS BY HYDROXYPROPYL CHITOSAN” (POLICHEM S.A., priority 2013, published 2016).
“And” between values parts separate entries of the source, which are not always exact repeats. Equal values may be shown once.

What was measured:
onychomycosis [1] = details: topical; according to the different vehicles used
onychomycosis [2] = details: oral route

| Compound | cure rate (onychomycosis [1]) | complete cure, proportion of patients (onychomycosis [2]) [%] |
| --- | --- | --- |
| Cc1cc(C2CCCCC2)n(O)c(=O)c1 [ciclopirox] | 12.7% and 5.8% | – |
| CN(C/C=C/C#CC(C)(C)C)Cc1cccc2ccccc12 [terbinafine] | – | 38 |
